tested on: P. falciparum 3D7 growth, pLDH absorbance; assay: P. falciparum 3D7 growth inhibition, dose response, strain 3D7 (AID 2305)

Row | Compound | IC50
1 | O=C(Nc1ccc(OC2CCN(Cc3ccc(F)cc3)CC2)c(Cl)c1)c1cccs1 | 320 nM
2 | O=C(NC1CCN(Cc2ccccc2)CC1)c1csc2nc(-c3ccc(Cl)cc3)cn12 | 910 nM
3 | O=C(Nc1cccc(CN2CCCN(Cc3cccc(F)c3)CC2)c1)c1ccc(Cl)c(Cl)c1 | 920 nM
4 | Cc1cc(NCc2ccc(F)cc2)nc2cc(O)ccc12 | 760 nM
5 | O=C(OCc1ccccn1)c1nc2ccccc2[nH]1 | 790 nM
6 | CCCCCCC1(C)N=C(N)N=C(N)C1c1ccc(Cl)c(Cl)c1 (stereo not given) | 130 nM
7 | CC(C)CNCc1ccc(-c2cccc(CN(C(=O)NC3CCCCC3)C3CCN(Cc4ccccc4)CC3)c2)cc1 | 800 nM
8 | COc1ccc(-c2ncnc(C(F)(F)F)c2-c2ccc(Cl)cc2)c(O)c1 | 800 nM
9 | C=CCn1c(SCC(=O)Nc2cc(Cl)ccc2Cl)nc2sc(C)cc2c1=O | 70 nM
10 | CN(Cc1ccc(C#N)cc1)C1CCN(c2cc(NC(=O)c3cccc(F)c3)ccn2)CC1 | 1750 nM
11 | CCNc1cc(C)nc(Nc2ccc(NS(=O)(=O)c3ccccc3)cc2)n1 | 790 nM
12 | COc1ccc2nc(C)cc(NN=Cc3ccccc3[N+](=O)[O-])c2c1 | 180 nM
13 | Fc1ccc(CNc2ncc(-c3ccsc3)c(-c3nccs3)n2)cc1 | 70 nM
14 | CCCCCCP(=O)(COc1ccc(CCN(CC(O)COc2cccc3[nH]c(C(N)=O)cc23)CC(O)COc2cccc3[nH]c(C(N)=O)cc23)cc1)OCCCC (stereo not given) | 720 nM
15 | Cc1cccc2[nH]c(-c3ccc(-c4cccc(CN5CCN(CC6CCCN(C)C6)CC5)c4)s3)nc12 (stereo not given) | 120 nM
16 | C(=Cc1nc2ccccc2s1)c1ccc2c(c1)OCCO2 | 390 nM
17 | Nc1cccc(C=CC(=O)Nc2ccnc3ccccc23)c1 | 1060 nM
18 | CC(C)COc1ccc(Cl)cc1Cc1nc(-c2nc3ccc(CN4CCCCC4)cc3[nH]2)co1 | 740 nM
19 | O=C(Cn1cnc2c(nnn2Cc2ccccc2F)c1=O)Nc1ccc2c(c1)OCCO2 | 950 nM
20 | CC(Cc1ccc(CN(CC(N)=O)Cc2ccc(CC(C)NCCc3cccc(Cl)c3)cc2)cc1)NCCc1cccc(Cl)c1 (stereo not given) | 670 nM
21 | CCNC(=O)Nc1ccc(N(C)c2ccnc(NC3CC3)n2)cc1 | 800 nM
22 | COC(=O)c1cccc(CNCc2cccc(-c3cccc(-c4nc5c(C)cccc5[nH]4)c3)c2)c1 | 190 nM
23 | CC(CN1CCN(C)CC1)C(=O)Nc1cccc(-c2cccc(-c3nc4ccccc4[nH]3)c2)c1 (stereo not given) | 1010 nM
24 | Cc1cccc(-c2ccc(NC(=O)Nc3ccc4nccc(N5CCN(C)CC5)c4c3)cc2C)n1 | 210 nM

Row | Compound | IC50
25 | COc1ccccc1CNc1nc(Nc2ccccc2C)nc2ccccc12 | 810 nM
26 | COc1cc(C2CCN(CCCCNC(=O)c3ccc(NC(=O)c4cc(C(F)(F)F)cc(C(F)(F)F)c4)cc3)CC2)ccc1OC(C)C | 150 nM
27 | CCC(C(=O)Nc1cc(=O)[nH]c2nc(-c3ccco3)nn12)c1ccccc1 (stereo not given) | 840 nM
28 | Cc1cccc2[nH]c(-c3cccc(-c4cccc(NC(=O)Nc5ccc(Cl)cc5)c4)c3)nc12 | 240 nM
29 | Cn1cncc1C(=O)Nc1cccc(-c2ccc(-c3nc4ccc(C(F)(F)F)cc4[nH]3)cc2)c1 | 510 nM
30 | O=C(Nc1ccc2c(ccn2C2CCCN(Cc3cc(F)cc(F)c3F)CC2)c1)c1ccco1 (stereo not given) | 650 nM
31 | CCCc1ccc2c(c1O)CCC(N(CCC)CCC)C2 (stereo not given) | 890 nM
32 | CC(=O)Nc1ccc(C2NC(=O)NC(c3ccccc3)=C2c2nc3ccccc3s2)cc1 (stereo not given) | 1110 nM
33 | Nc1nc2ccc(S(=O)(=O)Nc3ccc(C(=O)N[C@@H](CCC(=O)O)C(=O)O)c(F)c3)cc2c(=O)[nH]1 | 820 nM
34 | Cc1nnc2c(NC(=O)NC3CCCC3)cc3cc(-c4ccc(CN5CCN(C)CC5)cc4)ccc3n12 | 1020 nM
35 | Cc1noc(-c2cccs2)c1C(=O)NCCc1cccc(Cl)c1 | 460 nM
36 | CCNc1cc(C(=O)N[C@@H](Cc2ccc(F)c(F)c2)[C@H](O)CNC2CCCCC2)cc(N2CCCCS2(=O)=O)c1 | 120 nM
37 | CCN(CC)CCN(Cc1ccc(-c2ccc(C(F)(F)F)cc2)cc1)C(=O)Cn1c(CCc2ccc(F)c(F)c2F)nc(=O)c2ccc(F)cc21 | 740 nM
38 | CC(C)(C)C1CCC(C(=O)c2ccc3ccccc3c2O)CC1 (stereo not given) | 750 nM
39 | Cc1ccc(NC(=O)c2ccc(NCCCN(C)Cc3ccccc3)c([N+](=O)[O-])c2)cc1F | 700 nM
40 | O=C(COc1ccccc1)NC1CCN(c2ccnc3cc(Cl)ccc23)C1 (stereo not given) | 700 nM
41 | CC(=O)Nc1sc(C)c(C)c1CN1CCc2ccccc2C1 | 620 nM
42 | CC[C@H]1CN2CC[C@H]1C[C@H]2C(O)c1cc(OC)nc2ccccc12 (stereo not given in full) | 140 nM
43 | CCOC(=O)c1[nH]c2ccc(F)cc2c1NC(=O)CN1CCN(c2cccc(C(F)(F)F)c2)CC1 | 460 nM
44 | Cc1c(CNCCCNc2nc3ccccc3[nH]2)sc(C(F)F)c1Br | 290 nM
45 | C[C@H](Cc1ccc(OCCCCCCOc2ccc(C[C@@H](C)NC(=O)[C@H](O)c3cccc(Cl)c3)cc2)cc1)NC[C@H](O)c1cccc(Cl)c1 | 380 nM
46 | CC(C)(C)OC(=O)[C@H](CC(N)=O)NC(=O)c1ccc(-c2ccc(-c3nc4ccc(C(F)(F)F)cc4[nH]3)s2)cc1 | 270 nM
47 | Nc1c(Cl)cc(C(O)CNCCCCCCOCCc2ccc(CO)s2)cc1Cl (stereo not given) | 1050 nM
48 | Cc1c(C(=O)[C@@H]2C[C@H]2CN2CCC(N3CCCCC3)CC2)sc2ccccc12 | 1020 nM

Row | Compound | IC50
49 | CCCCOC(=O)NCCCC[C@H](NC(=O)OC(C)(C)C)C(=O)N[C@H](C(=O)OC(c1ccccc1)c1ccccc1)[C@H]1O[C@@H](n2ccc(=O)[nH]c2=O)[C@@H]2OC(C)(C)O[C@@H]21 | 1090 nM
50 | CC1(CCc2ccccc2)N=C(N)N=C(N)C1c1ccc(Cl)c(Cl)c1 (stereo not given) | 320 nM
51 | COc1ccc(C(F)(F)F)cc1N1CCN(CCCCNC(=O)c2ccc(NC(=O)c3ccc(Cl)cc3)cc2)CC1 | 910 nM
52 | C[C@@H]1CN(c2cnn(Cc3ccc(NC(=O)Nc4ccc(-c5ccccc5)cc4)cc3)c(=O)c2Cl)C[C@H](C)N1 | 370 nM
53 | Fc1ccc2nc(-c3ccc(-c4ccc(CN5CCN(c6ccncc6)CC5)cc4)cc3)[nH]c2c1 | 250 nM
54 | Nc1nc(N)c2cc(N(Cc3ccccc3)Cc3ccccc3)ccc2n1 | 610 nM
55 | Cc1sc2ccc(Cl)cc2c1S(=O)(=O)Nc1ccc2nccc(N3C[C@@H](C)N[C@@H](C)C3)c2c1 | 110 nM
56 | CCC(C)(C)c1ccc(S(=O)(=O)Nc2ccc(Cl)c(OCCN3CCCCC3)c2)cc1 | 1110 nM
57 | CCCCOC(=O)c1ccc(Nc2cc(C)nc3ccc(OC)cc23)cc1 | 640 nM
58 | Cn1c(=N)cc(-c2cccc(I)c2)c2c(=O)[nH]c(N)nc21 | 270 nM
59 | COc1ccc2nccc([C@@H](O)CN3CCC(NCc4cc5ccccn5n4)CC3)c2c1 | 1570 nM
60 | CC(C)(C)OC(=O)NCc1ccc(Nc2nnc(-c3ccc(OCC(=O)NCc4ccc(C(C)(C)C)cc4)c([N+](=O)[O-])c3)o2)cc1 | 800 nM
61 | CCCOc1ccc(NC(=O)c2cccs2)cc1Cl | 860 nM
62 | CC1(C)CNCc2cc(NC(=O)/C=C/c3ccc(Cl)cc3)ccc21 | 1180 nM
63 | CCCCCCCN(CCCCCCC)CCNc1cc(C)nc2ccccc12 | 340 nM
64 | Cc1[nH]c(C)c(-c2ccc(/C=C/c3ccccn3)cc2)c(=O)c1Cl | 520 nM
65 | CCCN1CCC(c2c[nH]c3ccc(NC(=O)Nc4cccc(Cl)c4Cl)cc23)CC1 | 810 nM
66 | Cn1ncc2c3c(CCN4CCC(NCc5cc6c(cn5)OCCO6)CC4)c(Cl)cnc3ccc21 | 770 nM
67 | CCOCCCn1c(=N)c(C(=O)NCc2ccc(F)cc2)cc2c(=O)n3cccc(C)c3nc21 | 530 nM
68 | O=C(Nc1cccc(-c2cccc(-c3nc4ccc(C(F)(F)F)cc4[nH]3)c2)c1)c1cnc[nH]1 | 210 nM
69 | CC(=O)OC[C@H]1O[C@@H](C#Cc2ccccc2)[C@H](OC(C)=O)[C@@H](OC(C)=O)[C@@H]1OC(C)=O | 280 nM
70 | COc1cccc(C(=O)[C@H]2C[C@@H]2CN2CC=C(c3c[nH]c4cccc(Br)c34)CC2)c1 | 750 nM
71 | O=C(Cc1cnc[nH]1)Nc1cccc(-c2ccc(-c3nc4ccc(C(F)(F)F)cc4[nH]3)cc2)c1 | 700 nM
72 | CCOC(=O)C1CCN(CCOc2cc(NC(=O)/C=C/c3ccccc3Cl)ccc2Br)CC1 | 990 nM

Row | Compound | IC50
73 | O=C(Nc1ccc(F)c(F)c1)c1ccc(CN2CCCN(Cc3cccc(O)c3)CC2)cc1 | 840 nM
74 | COc1ccc(NC(=O)[C@H](CC(C)C)Nc2cc(C)nc(NCCc3ccccc3)n2)cc1 | 890 nM
75 | N#Cc1cccc(Nc2nccc(NCC(O)c3ccccc3C(F)(F)F)n2)c1 (stereo not given) | 830 nM
76 | Cc1ccc(Nc2ccnc(Nc3ccc4c(c3)CS(=O)(=O)C4)n2)cc1O | 720 nM
77 | COc1ccc(Nc2nccc(N3CCC(NC(=O)Nc4ccc5c(c4)OCO5)C3)n2)cc1 (stereo not given) | 600 nM
78 | CC(C)(C)NS(=O)(=O)c1cc(C(=O)N2CCC(CCN3CCC(O)(c4cccc(C(F)(F)F)c4)CC3)(c3cccc(F)c3)CC2)c(Cl)cc1F | 860 nM
79 | COc1ccc(CCNC(=O)c2ccccc2O)cc1-c1ccc(C(C)(C)C)cc1 | 560 nM
80 | CC(C)(C)c1ccc(CN2CCC(CNC(=O)c3cc(-c4ccccc4)nc4ccccc34)CC2)cc1 | 1020 nM
81 | CC(=O)Nc1ccc(OCCN(CC(F)(F)F)c2ccc(C#N)cc2C(F)(F)F)cc1 | 770 nM
82 | CCOc1c(CNCCCNc2cc(=O)c3ccccc3[nH]2)cc(I)cc1OC | 1170 nM
83 | O=C(Nc1cccc(CN2CCCN(Cc3cccc(O)c3)CC2)c1)c1ccc(Cl)c(Cl)c1 | 660 nM
84 | O=C(Nc1cccc(F)c1)N[C@H]1CCN(CCCCCNC(=O)[C@@H]2C[C@H]2c2ccc(Cl)c(Cl)c2)C1 | 990 nM
85 | CC(C)n1ncc2c3c(N)nc(N)nc3ccc21 | 330 nM
86 | CC(C)n1cc(CN2CCCC(C(=O)Nc3cccc(-c4cc5ccccc5[nH]4)c3)C2)cn1 (stereo not given) | 1000 nM
87 | CN1CCN(CCCN(Cc2ccc(-c3ccc(CNCc4ccc5c(c4)OCO5)cc3)cc2)C(=O)Nc2ccccc2)CC1 | 710 nM
88 | O=C(CCCCCNC(=O)c1ccc(O)c(-c2ccc(Cl)c(Cl)c2)c1)NCCN1CCOCC1 | 830 nM
89 | Cc1ccccc1OCC(=O)Nc1ccc(-c2nc3cc4ccccc4cc3[nH]2)cc1 | 750 nM
90 | CCn1cc2c3c(cc(C(=O)N[C@@H](Cc4ccccc4)[C@H](O)CNCc4cccc(OC)c4)cc31)N(C)S(=O)(=O)CC2 | 670 nM
91 | O=c1ccc2ncc(Cl)c3c2n1CC3CN1CCC(NCc2cc3c(cn2)OCCO3)CC1 (stereo not given) | 960 nM
92 | CN1CCN(Cc2nc(-c3ccc4c(Nc5ccc(F)c(O)c5)ccnc4c3)cs2)CC1 | 170 nM
93 | CC12CN3CC(C)(CN(C1)C3c1cc(Br)ccc1O)C2O (stereo not given) | 230 nM
94 | Cc1cccc2[nH]c(-c3ccc(-c4ccc(C(=O)NCCN5CCCC5)cc4)s3)nc12 | 900 nM
95 | COC(=O)C(=O)c1c(-c2ccccc2)c(-c2ccc(OC)c(OC)c2)c2c3cc(OC)c(OC)cc3ccn12 | 640 nM

— PubChem BioAssay AID2305 (GlaxoSmithKline (GSK), 2010)
